From US20080234262A1 (Wyeth, priority 2007, published 2008)

Tests used:
[1] = biological target: PI3K (Homo sapiens, UniProt P42336); test: Fluorescence polarization assay for PI3K; type: biochemical; details: PI3Kα; read-out: PI3Kα IC50;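 note: PI3K kinase reaction on PIP2 with ATP, 30-60 min, product sensed by GST-GRP with red probe in fluorescence polarization (mP), controls without enzyme and at zero time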
[2] = test system: prostate line LNCap; test: In vitro cell culture growth assay (MTS), LNCap; type: cell-based, human; details: Homo sapiens, LNCaP, 72 h, LNCap cells, three days after drug treatment;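 note: viable cell density read by absorbance at 490 nm, growth expressed as percent of vehicle-treated cells on the same plate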
[3] = test system: breast line MDA468; test: In vitro cell culture growth assay (MTS), MDA468; type: cell-based, human; details: Homo sapiens, 72 h, MDA468 cells, three days after drug treatment
Summary of the method: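 Steps: plate cells; add inhibitors the next day; incubate 3 days; add MTS dye, which viable cells convert metabolically; measure absorbance at 490 nm; calculate percent of control growth relative to vehicle-treated cells in the same plate.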

Sequence of PI3K (P42336 whole entry): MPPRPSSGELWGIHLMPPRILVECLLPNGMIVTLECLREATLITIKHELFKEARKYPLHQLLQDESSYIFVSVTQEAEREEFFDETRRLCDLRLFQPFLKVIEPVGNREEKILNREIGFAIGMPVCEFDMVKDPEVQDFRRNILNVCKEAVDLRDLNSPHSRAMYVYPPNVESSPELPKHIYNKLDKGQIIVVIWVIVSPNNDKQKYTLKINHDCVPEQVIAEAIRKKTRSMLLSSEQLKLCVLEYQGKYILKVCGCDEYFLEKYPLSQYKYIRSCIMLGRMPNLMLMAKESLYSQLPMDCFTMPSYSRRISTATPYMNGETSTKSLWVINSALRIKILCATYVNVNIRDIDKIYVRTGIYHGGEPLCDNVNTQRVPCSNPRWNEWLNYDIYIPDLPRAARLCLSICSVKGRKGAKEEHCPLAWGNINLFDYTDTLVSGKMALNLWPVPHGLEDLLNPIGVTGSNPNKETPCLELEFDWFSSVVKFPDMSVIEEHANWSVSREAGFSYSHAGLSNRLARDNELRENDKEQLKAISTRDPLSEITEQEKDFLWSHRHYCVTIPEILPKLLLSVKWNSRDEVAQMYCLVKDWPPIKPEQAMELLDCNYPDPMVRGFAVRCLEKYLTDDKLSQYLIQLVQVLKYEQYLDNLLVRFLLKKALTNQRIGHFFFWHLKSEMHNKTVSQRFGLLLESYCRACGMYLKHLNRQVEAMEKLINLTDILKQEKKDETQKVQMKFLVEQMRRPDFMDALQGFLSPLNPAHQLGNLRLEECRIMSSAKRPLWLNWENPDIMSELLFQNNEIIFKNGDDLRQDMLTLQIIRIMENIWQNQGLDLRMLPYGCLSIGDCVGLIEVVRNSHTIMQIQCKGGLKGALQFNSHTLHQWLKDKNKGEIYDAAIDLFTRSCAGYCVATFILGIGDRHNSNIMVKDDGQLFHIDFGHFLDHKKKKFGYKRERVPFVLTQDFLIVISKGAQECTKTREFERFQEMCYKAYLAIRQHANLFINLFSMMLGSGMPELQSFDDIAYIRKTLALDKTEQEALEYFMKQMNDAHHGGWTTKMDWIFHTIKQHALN
Sequence of PI3K (P27986 whole entry partner): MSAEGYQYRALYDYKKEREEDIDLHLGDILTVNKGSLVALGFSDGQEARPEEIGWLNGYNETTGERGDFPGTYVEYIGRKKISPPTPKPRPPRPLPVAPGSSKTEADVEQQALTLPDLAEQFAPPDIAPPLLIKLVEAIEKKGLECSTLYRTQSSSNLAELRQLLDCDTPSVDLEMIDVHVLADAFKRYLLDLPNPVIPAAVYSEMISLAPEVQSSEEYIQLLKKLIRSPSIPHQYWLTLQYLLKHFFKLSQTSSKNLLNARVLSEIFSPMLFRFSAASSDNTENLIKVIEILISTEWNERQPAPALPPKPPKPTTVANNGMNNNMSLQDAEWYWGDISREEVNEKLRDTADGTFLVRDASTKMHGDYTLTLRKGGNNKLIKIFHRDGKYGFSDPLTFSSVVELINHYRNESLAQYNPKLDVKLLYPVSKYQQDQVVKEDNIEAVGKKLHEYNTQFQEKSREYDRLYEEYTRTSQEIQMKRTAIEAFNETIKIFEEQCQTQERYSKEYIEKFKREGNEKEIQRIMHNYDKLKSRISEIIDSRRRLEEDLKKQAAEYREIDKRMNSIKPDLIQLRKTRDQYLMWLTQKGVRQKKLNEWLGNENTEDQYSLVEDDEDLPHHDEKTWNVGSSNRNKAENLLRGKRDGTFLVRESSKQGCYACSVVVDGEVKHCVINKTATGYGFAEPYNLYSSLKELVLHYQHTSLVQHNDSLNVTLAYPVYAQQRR

IC50 [1] [µM] | IC50 [2] [µM] | SMILES | IC50 [3] [µM]
0.038 | 0.025 | CC(C)C(=O)N1CCC(n2ncc3c(N4CCOCC4)nc(-c4ccc(NC(=O)Nc5ccncc5)cc4)nc32)CC1 [Compound 829, 1-{4-[1-(1-isobutyrylpiperidin-4-yl)-4-morpholin-4-yl-1H-pyrazolo[3,4-d]pyrimidin-6-yl]phenyl}-3-pyridin-4-ylurea] | 0.029
12 | 1.8 | CC(C)OC(=O)N1CCC(n2ncc3c(N4CCOCC4)nc(-c4ccc(N)cc4)nc32)CC1 [Compound 830, isopropyl 4-[6-(4-aminophenyl)-4-morpholin-4-yl-1H-pyrazolo[3,4-d]pyrimidin-1-yl]piperidine-1-carboxylate] | 16
0.236 | 0.05 | CNC(=S)Nc1ccc(-c2nc(N3CCOCC3)c3cnn(C4CCN(C(=O)OC(C)C)CC4)c3n2)cc1 [Compound 831, isopropyl 4-[6-(4-{[(methylamino)carbonothioyl]amino}phenyl)-4-morpholin-4-yl-1H-pyrazolo[3,4-d]pyrimidin-1-yl]piperidine-1-carboxylate] | 0.39
8 | 2 | CN/C(=N\c1ccc(-c2nc(N3CCOCC3)c3cnn(C4CCN(C(=O)OC(C)C)CC4)c3n2)cc1)SC [Compound 832, isopropyl 4-[6-(4-{[(1E)-(methylamino)(methylthio)methylene]amino}phenyl)-4-morpholin-4-yl-1H-pyrazolo[3,4-d]pyrimidin-1-yl]piperidine-1-carboxylate] | 3.7
0.45 | 0.22 | CC(C)OC(=O)N1CCC(n2ncc3c(N4CCOCC4)nc(-c4ccc(NC(=O)NCCO)cc4)nc32)CC1 [Compound 834, isopropyl 4-[6-(4-{[(2-hydroxyethyl)carbamoyl]amino}phenyl)-4-morpholin-4-yl-1H-pyrazolo[3,4-d]pyrimidin-1-yl]piperidine-1-carboxylate] | 0.18
0.056 | 0.058 | CC(C)OC(=O)N1CCC(n2ncc3c(N4CCOCC4)nc(-c4ccc(NC(=O)Nc5ccccc5)cc4)nc32)CC1 [Compound 836, isopropyl 4-(6-{4-[(anilinocarbonyl)amino]phenyl}-4-morpholin-4-yl-1H-pyrazolo[3,4-d]pyrimidin-1-yl)piperidine-1-carboxylate] | 0.17
12 | 2.5 | CC(C)OC(=O)N1CCC(n2ncc3c(N4CCOCC4)nc(-c4ccc(NC(=O)Nc5ccccn5)cc4)nc32)CC1 [Compound 837, isopropyl 4-(4-morpholin-4-yl-6-{4-[(pyridin-2-ylcarbamoyl)amino]phenyl}-1H-pyrazolo[3,4-d]pyrimidin-1-yl)piperidine-1-carboxylate] | 4.6
0.074 | 0.028 | CC(C)OC(=O)N1CCC(n2ncc3c(N4CCOCC4)nc(-c4ccc(NC(=O)Nc5cccnc5)cc4)nc32)CC1 [Compound 838, isopropyl 4-(4-morpholin-4-yl-6-{4-[(pyridin-3-ylcarbamoyl)amino]phenyl}-1H-pyrazolo[3,4-d]pyrimidin-1-yl)piperidine-1-carboxylate] | 0.15
0.037 | 0.027 | CC(C)OC(=O)N1CCC(n2ncc3c(N4CCOCC4)nc(-c4ccc(NC(=O)Nc5ccncc5)cc4)nc32)CC1 [Compound 839, isopropyl 4-(4-morpholin-4-yl-6-{4-[(pyridin-4-ylcarbamoyl)amino]phenyl}-1H-pyrazolo[3,4-d]pyrimidin-1-yl)piperidine-1-carboxylate] | 0.068
3.55 | 3.2 | COC(=O)Nc1ccc(-c2nc(N3CCOC(C)C3)c3cnn(C4CCN(C(=O)OC)CC4)c3n2)cc1 (stereo not drawn) [Compound 840, methyl 4-[6-{4-[(methoxycarbonyl)amino]phenyl}-4-(2-methylmorpholin-4-yl)-1H-pyrazolo[3,4-d]pyrimidin-1-yl]piperidine-1-carboxylate] | 10
0.268 | 0.15 | CNC(=O)Nc1ccc(-c2nc(N3CCOC(C)C3)c3cnn(C4CCN(C(=O)OC)CC4)c3n2)cc1 (stereo not drawn) [Compound 841, methyl 4-[6-{4-[(methylcarbamoyl)amino]phenyl}-4-(2-methylmorpholin-4-yl)-1H-pyrazolo[3,4-d]pyrimidin-1-yl]piperidine-1-carboxylate] | 0.5
0.721 | 0.07 | CCNC(=O)Nc1ccc(-c2nc(N3CCOC(C)C3)c3cnn(C4CCN(C(=O)OC)CC4)c3n2)cc1 (stereo not drawn) [Compound 842, methyl 4-[6-{4-[(ethylcarbamoyl)amino]phenyl}-4-(2-methylmorpholin-4-yl)-1H-pyrazolo[3,4-d]pyrimidin-1-yl]piperidine-1-carboxylate] | 1
1.38 | 0.08 | COC(=O)N1CCC(n2ncc3c(N4CCOC(C)C4)nc(-c4ccc(NC(=O)NC5CC5)cc4)nc32)CC1 (stereo not drawn) [Compound 843, methyl 4-[6-{4-[(cyclopropylcarbamoyl)amino]phenyl}-4-(2-methylmorpholin-4-yl)-1H-pyrazolo[3,4-d]pyrimidin-1-yl]piperidine-1-carboxylate] | 0.9
0.896 | 0.059 | COC(=O)N1CCC(n2ncc3c(N4CCOC(C)C4)nc(-c4ccc(NC(=O)NCCF)cc4)nc32)CC1 (stereo not drawn) [Compound 844, methyl 4-[6-(4-{[(2-fluoroethyl)carbamoyl]amino}phenyl)-4-(2-methylmorpholin-4-yl)-1H-pyrazolo[3,4-d]pyrimidin-1-yl]piperidine-1-carboxylate] | 0.7
0.402 | 1.1 | COC(=O)N1CCC(n2ncc3c(N4CCOC(C)C4)nc(-c4ccc(NC(=O)NCCO)cc4)nc32)CC1 (stereo not drawn) [Compound 845, methyl 4-[6-(4-{[(2-hydroxyethyl)carbamoyl]amino}phenyl)-4-(2-methylmorpholin-4-yl)-1H-pyrazolo[3,4-d]pyrimidin-1-yl]piperidine-1-carboxylate] | 1.6
0.081 | 0.058 | COC(=O)N1CCC(n2ncc3c(N4CCOC(C)C4)nc(-c4ccc(NC(=O)Nc5cccnc5)cc4)nc32)CC1 (stereo not drawn) [Compound 846, methyl 4-[4-(2-methylmorpholin-4-yl)-6-{4-[(pyridin-3-ylcarbamoyl)amino]phenyl}-1H-pyrazolo[3,4-d]pyrimidin-1-yl]piperidine-1-carboxylate] | 0.5
8.32 | 13 | COC(=O)N1CCC(n2ncc3c(N4CCOC(C)C4)nc(-c4ccc(NC(=O)Nc5ccccn5)cc4)nc32)CC1 (stereo not drawn) [Compound 847, methyl 4-[4-(2-methylmorpholin-4-yl)-6-{4-[(pyridin-2-ylcarbamoyl)amino]phenyl}-1H-pyrazolo[3,4-d]pyrimidin-1-yl]piperidine-1-carboxylate] | 15
0.06 | 0.062 | COC(=O)N1CCC(n2ncc3c(N4CCOC(C)C4)nc(-c4ccc(NC(=O)Nc5ccccc5)cc4)nc32)CC1 (stereo not drawn) [Compound 848, methyl 4-[6-{4-[(anilinocarbonyl)amino]phenyl}-4-(2-methylmorpholin-4-yl)-1H-pyrazolo[3,4-d]pyrimidin-1-yl]piperidine-1-carboxylate] | 0.72
0.024 | 0.095 | CCCOC(=O)N1CCC(n2ncc3c(N4CCOCC4)nc(-c4ccc(NC(=O)Nc5ccccc5)cc4)nc32)CC1 [Compound 849, propyl 4-(4-morpholin-4-yl-6-{4-[(phenylcarbamoyl)amino]phenyl}-1H-pyrazolo[3,4-d]pyrimidin-1-yl)piperidine-1-carboxylate] | 0.3
0.038 | < 0.027 | CCCOC(=O)N1CCC(n2ncc3c(N4CCOCC4)nc(-c4ccc(NC(=O)Nc5cccnc5)cc4)nc32)CC1 [Compound 850, propyl 4-(4-morpholin-4-yl-6-{4-[(pyridin-3-ylcarbamoyl)amino]phenyl}-1H-pyrazolo[3,4-d]pyrimidin-1-yl)piperidine-1-carboxylate] | 0.12
0.022 | < 0.027 | CCCOC(=O)N1CCC(n2ncc3c(N4CCOCC4)nc(-c4ccc(NC(=O)Nc5ccncc5)cc4)nc32)CC1 [Compound 851, propyl 4-(4-morpholin-4-yl-6-{4-[(pyridin-4-ylcarbamoyl)amino]phenyl}-1H-pyrazolo[3,4-d]pyrimidin-1-yl)piperidine-1-carboxylate] | 0.11
0.577 | 0.08 | CCCOC(=O)N1CCC(n2ncc3c(N4CCOCC4)nc(-c4ccc(NC(=O)NCC)cc4)nc32)CC1 [Compound 852, propyl 4-(6-{4-[(ethylcarbamoyl)amino]phenyl}-4-morpholin-4-yl-1H-pyrazolo[3,4-d]pyrimidin-1-yl)piperidine-1-carboxylate] | 0.51
0.824 | 0.13 | CCCNC(=O)Nc1ccc(-c2nc(N3CCOCC3)c3cnn(C4CCN(C(=O)OCCC)CC4)c3n2)cc1 [Compound 853, propyl 4-(4-morpholin-4-yl-6-{4-[(propylcarbamoyl)amino]phenyl}-1H-pyrazolo[3,4-d]pyrimidin-1-yl)piperidine-1-carboxylate] | 1
0.6 | 0.027 | CCCOC(=O)N1CCC(n2ncc3c(N4CCOCC4)nc(-c4ccc(NC(=O)NCCF)cc4)nc32)CC1 [Compound 854, propyl 4-[6-(4-{[(2-fluoroethyl)carbamoyl]amino}phenyl)-4-morpholin-4-yl-1H-pyrazolo[3,4-d]pyrimidin-1-yl]piperidine-1-carboxylate] | 0.33
